We go through 39 compounds from patent US10967069B2, “Bio-orthogonal drug activation” (TAGWORKS PHARMACEUTICALS B.V., priority 2011, dated 2021).

Molecules are shown by their SMILES. Read-outs that look alike come from different tables or passages of the source. Marks after values point to notes of the source that are not given here.

Test [1] in a line: Reactivity of tetrazines towards trans-cyclooct-4-ene-1-ol (axial isomer), competition experiment. To be noted: reference tetrazine 5; acetonitrile/water. The protocol: A competition experiment was performed to determine the reactivity ratio of a specific tetrazine and 3-(5-acetamido-2-pyridyl)-6-(2-pyridyl)-1,2,4,5-tetrazine (5) (that was chosen as the reference tetrazine), in the inverse-electron demand Diels-Alder reaction with trans-cyclooct-4-ene-1-ol (“minor” isomer with OH in axial position, see: Whitham et al. J. Chem. Soc. (C), 1971, 883-896)).
To acetonitrile (0.100 mL) was added 5 μL of a solution of the specific tetrazine in DMSO (25 mM) and 5 μL of a solution of the reference tetrazine in DMSO (25 mM). This mixture was diluted with water (0.9 mL), and the absolute amounts of both tetrazines was determined by HPLC-MS/PDA analysis. Subsequently, a solution of trans-cyclooct-4-ene-1-ol (axial isomer) in DMSO (25 μL 2.5 mM) was slowly added, and the mixture was stirred for 5 min. Again, the absolute amounts of both tetrazines was determined by HPLC-MS/PDA analysis, and conversions for both tetrazines was calculated. From these conversions, the reactivity ratio (R=k2,TCO/k2,Ref) of both tetrazines was calculated using the mathematical procedure from Ingold and Shaw (J. Chem. Soc., 1927, 2918-2926).

Assay in test [2]: as above
The conditions noted are these: values marked *: 50:50 mixture of PBS and acetonitrile; reference tetrazine 5.

Test [3] in a line: Second-order rate constant of trans-cyclooctene derivatives in inverse-electron demand Diels-Alder reaction (UV-visible spectroscopy). To be noted: UV-visible spectroscopy in acetonitrile at 20° C. How it is done: The kinetics of the inverse-electron demand Diels-Alder reaction of a trans-cyclooctene derivative with 3-(5-acetamido-2-pyridyl)-6-(2-pyridyl)-1,2,4,5-tetrazine (5), performed in acetonitrile at 20° C., was determined using UV-visible spectroscopy. A cuvette was filled with acetonitrile (3 mL) and equilibrated at 20° C. 3-(5-Acetamido-2-pyridyl)-6-(2-pyridyl)-1,2,4,5-tetrazine (5, 2.50×10^−7 mol) was added, followed by the trans-cyclooctene derivative (2.50×10^−7 mol). The decay of the absorption at λ=540 nm was monitored, and from this curve the second-order rate constant, k2, was determined assuming second order rate kinetics.

The subject of test [4] is A431 squamous carcinoma cells. The test is described as follows: Cell proliferation assay (MTT).
Description: The cells were plated in 96-well plates (Nunc) at a 2500 cells/well density 24 hr prior to the experiment. Doxorubicin (Dox) and the prodrug minor-38 (1 mM in DMSO) and the tetrazine 7 (10 mM in PBS) were serially diluted in pre-warmed culture medium immediately before the experiment and added to the wells (200 μl final volume per well). The prodrug was either added alone or in combination with 10 μM or 1.5 mol eq. tetrazine 7 (with respect to the prodrug). After 72 hr incubation at 37° C., cell proliferation was assessed by an MTT assay. Briefly, methylthiazolyldiphenyltetrazolium bromide (MTT) was dissolved in PBS at 5 mg/ml, filtered through 0.22 μm and 25 μl was added to each well. After 120 min incubation at 37° C., the medium was gently aspirated. The formed formazan crystals were dissolved in 100 μl DMSO and the absorbance was measured with a plate reader (BMG Labtech) at 560 nm.
Test [5] in a line: Activation of model prodrugs: reaction with 1,2,4,5-tetrazines and elimination of the model drug (HPLC-MS). To be noted: for release of 3,5-dimethylaniline: 20 hr.
The procedure of test [6]:
3-(2-Pyridyl)-6-methyl-1,2,4,5-tetrazine (7, 4.33×10^−6 g; 2.50×10^−8 mol) was dissolved in PBS buffer (1 mL) (c=25 μM). Next, minor-(E)-cyclooct-2-en-1-yl doxorubicin carbamate (38, the isomer with the carbamate in the axial position; 1.74×10^−5 g; 2.50×10^−8 mol) was added. The solution was stirred at 20° C. for 4 hr.
3-(2-Pyridyl)-6-methyl-1,2,4,5-tetrazine (7, 4.33×10^−6 g; 2.50×10^−8 mol) was dissolved in PBS buffer (1 mL) (c=25 μM). Next, major-(E)-cyclooct-2-en-1-yl doxorubicin carbamate (38, the isomer with the carbamate in the equatorial position; 1.74×10^−5 g; 2.50×10^−8 mol) was added. The solution was stirred at 20° C. for 16 hr.
3,6-Bis(2-aminophenyl)-1,2,4,5-tetrazine (9, 2.64×10^−6 g; 1.00×10^−8 mol) was dissolved in acetonitrile (0.1 mL). This mixture was diluted with PBS buffer (0.9 mL). Next, minor-(E)-cyclooct-2-en-1-yl doxorubicin carbamate (38; 6.96×10^−6 g; 1.00×10^−8 mol) was added.

Test [7] is described as follows: Reactivity of trans-cyclooctene derivatives, competition experiment. To be noted: reference trans-cyclooct-4-ene-1-ol (axial isomer). How it is done: A competition experiment was performed to determine the reactivity ratio of a specific trans-cyclooctene derivative and trans-cyclooct-4-ene-1-ol (axial isomer) (that was chosen as the reference trans-cyclooctene), in the inverse-electron demand Diels-Alder reaction with bis(2-pyridyl)-1,2,4,5-tetrazine (2).
This mixture was diluted with water (0.45 mL). Subsequently, a solution of bis(2-pyridyl)-1,2,4,5-tetrazine (2, 6.25×10^−8 mol) in a mixture of acetonitrile (0.05 mL) and water (0.45 mL) was slowly added while stirring vigorously. After addition, the mixture was stirred for an additional 5 min. The conversion of both trans-cyclooctene derivatives was determined by HPLC-MS/PDA analysis, and from these conversions, the reactivity ratio (R=k2,TCO/k2,Ref) of the specific trans-cyclooctene derivative was calculated using the mathematical procedure from Ingold and Shaw (J. Chem. Soc., 1927, 2918-2926).

Setting [8] is: with tetrazine 7, c=25 μM, PBS, 20° C., 16 hr.

For the compound `CCCC(=O)Nc1ccc(-c2nncnn2)nc1`, in test [1], the “Reactivity ratio (R = k2,TZ/k2,Ref)” value was determined as 2.8.

Take `c1cc(-c2nnc(-c3ccsc3)nn2)cs1`: in test [2], the “Reactivity ratio (R = k2,TZ/k2,Ref)” value is reported as <0.01*.

For the compound `O=C(NCc1ccccc1)OC1/C=C/CCCCC1` (stereo not drawn) [drawing 103], the “rate contant k2” value in test [3] was 0.26 M⁻¹ s⁻¹.

Consider `CCCC(=O)Nc1ccc(-c2nnc(-c3ccc(C(F)(F)F)cn3)nn2)nc1`, for which the “Reactivity ratio (R = k2,TZ/k2,Ref)” value in test [2] is listed as 1.84*.

`c1ccc(-c2nnc(-c3ccccc3)nn2)cc1`: in test [2], the “Reactivity ratio (R = k2,TZ/k2,Ref)” value is <0.01*.

With `c1c[nH]c(-c2nnc(-c3ncc[nH]3)nn2)n1`, the “Reactivity ratio (R = k2,TZ/k2,Ref)” value in test [1] came to 1.2.

`Nc1cccc(-c2nnc(-c3ccccc3)nn2)c1`: in test [2], the “Reactivity ratio (R = k2,TZ/k2,Ref)” value is <0.01*.

Regarding `Oc1ccc(-c2nnc(-c3ccc(O)cc3)nn2)cc1`, the “Reactivity ratio (R = k2,TZ/k2,Ref)” value in test [2] is <0.01*.

Take `c1cnc(-c2nnc(-c3cnccn3)nn2)cn1`: in test [1], the “Reactivity ratio (R = k2,TZ/k2,Ref)” value came out at 1.5.

Consider `Nc1ccc(-c2nnc(-c3ccccc3)nn2)cc1`, for which, in test [2], the “Reactivity ratio (R = k2,TZ/k2,Ref)” value is on record as <0.01*.

In turn, `COc1cccc2c1C(=O)c1c(O)c3c(c(O)c1C2=O)C[C@@](O)(C(=O)CO)C[C@@H]3O[C@H]1C[C@H](N)[C@H](O)[C@H](C)O1` [Dox, Doxorubicin, reference compound] showed an IC50 in test [4] (Homo sapiens, A-431, 72 h) of 20 ± 2 nM.

As to `c1cncc(-c2nnc(-c3cccnc3)nn2)c1`, the “Reactivity ratio (R = k2,TZ/k2,Ref)” value in test [1] is given as 0.19.

Take `Cc1cc(C)cc(NC(=O)OC2/C=C/CCCCC2)c1` (stereo not drawn) [minor-33, (E)-cyclooct-2-en-1-yl (3,5-dimethylphenyl)carbamate]: the “release of 3,5-dimethylaniline” value is given as “release of 3,5-dimethylaniline” in test [5] (with 3,6-Bis(2-aminophenyl)-1,2,4,5-tetrazine (9), acetonitrile/PBS, 20° C.); “release of 3,5-dimethylaniline” in test [5] (with 3,6-Bis(4-hydroxyphenyl)-1,2,4,5-tetrazine (11), acetonitrile/PBS, 20° C.); “release of 3,5-dimethylaniline” in test [5] (with 3,6-Diphenyl-1,2,4,5-tetrazine, acetonitrile/PBS, 20° C.); “release of 3,5-dimethylaniline” in test [5] (with 3-(2-Pyridyl)-6-methyl-1,2,4,5-tetrazine (7), PBS, 20° C.).

Consider `O=C1CCCC(=O)N1c1ccc(-c2nnc(-c3ccccn3)nn2)nc1`, for which, in test [1], the “Reactivity ratio (R = k2,TZ/k2,Ref)” value is recorded as 1.6.

As to `c1ccc(-c2nnc(-c3ccccn3)nn2)nc1`, in test [1], the “Reactivity ratio (R = k2,TZ/k2,Ref)” value is 1.17.

Take `c1c[nH]c(-c2nnc(-c3ccc[nH]3)nn2)c1`: the “Reactivity ratio (R = k2,TZ/k2,Ref)” value in test [2] was <0.01*.

`Nc1ccc(-c2nnc(-c3ccc(N)cc3)nn2)cc1`: the “Reactivity ratio (R = k2,TZ/k2,Ref)” value in test [2] was <0.01*.

Turning to `Cc1cc(C)cc(NC(=O)OC2/C=C/CCCCC2)c1` (stereo not drawn) [drawing 106], in test [3], the “rate contant k2” value stood at 0.15 M⁻¹ s⁻¹.

For the compound `COc1cccc2c1C(=O)c1c(O)c3c(c(O)c1C2=O)C[C@@](O)(C(=O)CO)C[C@@H]3O[C@H]1C[C@H](NC(=O)OC2/C=C/CCCCC2)[C@H](O)[C@H](C)O1` (stereo partly drawn) [minor-38, minor-(E)-cyclooct-2-en-1-yl doxorubicin carbamate], the “release of doxorubicin (yield)” value in test [6] (with tetrazine 7, c=25 μM, PBS, 20° C., 4 hr) is given as 69%; in test [6] (with tetrazine 9, acetonitrile/PBS, 20° C., 18 hr), 90%. Also, the “release of doxorubicin at lower concentrations” value in test [6] (with tetrazine 7, concentrations of 2.5 and 1.0 μM) is on record as “Comparable results”. For the same compound, the IC50 in test [4] (A431, 72 hr, + tetrazine 7 (10 μM), constant amount) is 278 ± 22 nM; in test [4] (A431, 72 hr, + tetrazine 7 (1.5 eq.), serial dilutions), 137 ± 12 nM; in test [4] (A431 cell line, 72 hr, MTT, compound alone), 3020 ± 486 nM.

On to `Fc1ccc(-c2nnc(-c3ccc(F)cn3)nn2)nc1`, for which the “Reactivity ratio (R = k2,TZ/k2,Ref)” value in test [1] was found to be 1.07.

On to `O=C(NCc1ccccc1)OC1/C=C/CCCCC1` (stereo not drawn) [minor-32, (E)-cyclooct-2-en-1-yl benzylcarbamate], for which the release of benzylamine result is “release of benzylamine” in test [5] (with 3,6-Bis(2-aminophenyl)-1,2,4,5-tetrazine (9), DMSO-d6/D2O, 20° C., 24 hr); “release of benzylamine” in test [5] (with 3,6-Bis(2-pyridinyl)-1,2,4,5-tetrazine (2), acetonitrile/water, 20° C., 24 hr); “release of benzylamine” in test [5] (with 3,6-Bis(4-hydroxyphenyl)-1,2,4,5-tetrazine (11), acetonitrile/water, 20° C., 5 hr); “release of benzylamine” in test [5] (with 3,6-Diphenyl-1,2,4,5-tetrazine, general procedure); “release of benzylamine” in test [5] (with 6-H-3-(4-Aminomethylphenyl)-1,2,4,5-tetrazine, general procedure); “release of benzylamine” in test [5] (with 6-Methyl-3-(4-butanamido-2-pyridinyl)-1,2,4,5-tetrazine, general procedure). Besides, the release of benzylamine result in test [5] (with 6-Phenyl-3-(3-aminophenyl)-1,2,4,5-tetrazine, general procedure) is listed as “release of benzylamine”; in test [5] (with 6-Phenyl-3-(4-aminophenyl)-1,2,4,5-tetrazine, general procedure), “release of benzylamine”.

With `c1cc(-c2nnc(-c3ccncc3)nn2)ccn1`, the “Reactivity ratio (R = k2,TZ/k2,Ref)” value in test [1] came to 0.83.

`CCCNC(=O)c1ccc(-c2nnc(-c3ccccn3)nn2)nc1`: the “Reactivity ratio (R = k2,TZ/k2,Ref)” value in test [1] was determined as 1.76.

As to `NCc1ccc(-c2nncnn2)cc1`, in test [1], the “Reactivity ratio (R = k2,TZ/k2,Ref)” value was 0.77.

As for `OC1CC/C=C/CCC1` (stereo not drawn), in test [3], the “rate contant k2” value was 577 M⁻¹ s⁻¹. In test [7], the “reactivity ratio (R = k2,TC0/k2,Ref)” value is reported as 1.

For the compound `c1csc(-c2nnc(-c3cccs3)nn2)c1`, the “Reactivity ratio (R = k2,TZ/k2,Ref)” value in test [2] is <0.01*.

In the case of `FC(F)(F)c1ccc(-c2nnc(-c3ccc(C(F)(F)F)cn3)nn2)nc1`, the “Reactivity ratio (R = k2,TZ/k2,Ref)” value in test [2] is on record as 5.3*.

In the case of `CC(=O)Nc1ccc(-c2nnc(-c3ccccn3)nn2)nc1`, the “Reactivity ratio (R = k2,TZ/k2,Ref)” value in test [1] was determined as 1.

With `c1ccc(-c2nncnn2)nc1`, in test [1], the “Reactivity ratio (R = k2,TZ/k2,Ref)” value was determined as 3.06.

As for `O=C(NCc1ccccc1)OC1/C=C/CCCCC1` (stereo not drawn) [drawing 104], the “rate contant k2” value in test [3] is 40 M⁻¹ s⁻¹. Also, the “reactivity ratio (R = k2,TC0/k2,Ref)” value in test [7] worked out at 0.067.

Regarding `Cc1nnc(-c2ccccn2)nn1` [Tetrazine 7, 3-(2-pyridyl)-6-methyl-1,2,4,5-tetrazine], the IC50 in test [4] (Homo sapiens, A-431, 72 h) is over 100000 nM.

Consider `Nc1ccccc1-c1nnc(-c2ccccc2N)nn1`, for which the “Reactivity ratio (R = k2,TZ/k2,Ref)” value in test [2] is recorded as <0.01*.

As for `COc1cccc2c1C(=O)c1c(O)c3c(c(O)c1C2=O)C[C@@](O)(C(=O)CO)C[C@@H]3O[C@H]1C[C@H](NC(=O)OC2/C=C/CCCCC2)[C@H](O)[C@H](C)O1` (stereo partly drawn) [major-38, major-(E)-cyclooct-2-en-1-yl doxorubicin carbamate], in test [6] (setting [8]), the “conversion of the DA-reaction” value was 40% and the “release of doxorubicin (yield)” value is 20%.

In the case of `CCCC(=O)Nc1ccc(-c2nnc(-c3ncccn3)nn2)nc1`, the “Reactivity ratio (R = k2,TZ/k2,Ref)” value in test [1] was determined as 2.7.

Regarding `Cc1nnc(-c2ccccn2)nn1` [drawing 93], the “Reactivity ratio (R = k2,TZ/k2,Ref)” value in test [1] came to 0.25.

`CCCC(=O)Nc1ccc(-c2nnc(-c3ccc(F)cn3)nn2)nc1`: in test [1], the “Reactivity ratio (R = k2,TZ/k2,Ref)” value turned out to be 0.95.

For `Cc1cc(C)cc(NC(=O)OC2/C=C/CCCCC2)c1` (stereo not drawn) [drawing 105], the “rate contant k2” value in test [3] amounted to 25.7 M⁻¹ s⁻¹.

Turning to `Nc1ccc(-c2nnc(-c3ccccn3)nn2)nc1`, the “Reactivity ratio (R = k2,TZ/k2,Ref)” value in test [1] is listed as 0.4.

Turning to `CCCC(=O)Nc1ccc(-c2nnc(C)nn2)nc1`, the “Reactivity ratio (R = k2,TZ/k2,Ref)” value in test [1] is on record as 0.18.
